Experimental data taken from BindingDB's records for doi:10.1021/acs.jmedchem.7b00951 (Shandong University, 2017).

What was measured:
[1] = Antagonist activity at PAR1 in human platelet-rich plasma assessed as reduction in TRAP-stimulated platelet aggregation preincubated for 20 mins followed by TRAP stimulation measured after 5 mins by aggregometric analysis
[2] = Antagonist activity at PAR1 in human platelet-rich plasma assessed as reduction in thrombin-stimulated platelet aggregation preincubated for 3 mins followed by thrombin stimulation measured after 5 mins by aggregometric analysis
[3] = as above; remark: listed apart in the source

IC50 [1] | IC50 [2] | IC50 [3] | Compound
1.6 µM | 0.65 µM |  | C[C@H]1CC[C@@H]2C(C)(C)[C@H](O)CC[C@@]2(C)[C@@H]1/C=C/c1ccc(-c2cccc(F)c2)cn1
0.031 µM |  | 0.081 µM | CCOC(=O)N[C@@H]1CC[C@@H]2[C@@H](C1)C[C@H]1C(=O)O[C@H](C)[C@H]1[C@H]2C=Cc1ccc(-c2cccc(F)c2)cn1 [Ethyl [(3aR,4aR,8aR,9aS)-9(S)-[(E)-2-[5-(3-fluorophenyl)-2-pyridinyl]ethenyl]dodecahydro-1(R)-methyl-3-oxonaphtho[2,3-c]furan-6(R)-yl]carbamate]
